Patent US6380198B1 (Laboratoire Medidom S.A., priority 1997, dated 2002)
“And” between values parts separate entries of the source, which are not always exact repeats. Identical values can stand only once.

Columns and labels:
[1] = biological target: T1, σ-1 receptors (Oryctolagus cuniculus, UniProt G1SD54); experiment: [3H](+)-pentazocine receptor binding and competitive binding on irido-ciliary body membranes; parameters: species or system rabbit (New Zealand albino); settings: 300 μg membrane protein, 37° C., 150 minutes
T1 construct: cell membranes obtained from the irido-ciliary body complex; from tissue; host or cells: rabbit irido-ciliary body, P2 membrane fraction
Description: In order to identify the presence of a receptor sites in the eye the technique of “receptor binding” has been exploited. The latter has been carried out on cell membranes obtained from the irido-ciliary body complex. The irido-ciliary body complex had been explanted, after sacrifice, from male albino rabbits of the New Zealand strain. The tissue was homogenised in buffer and a fraction rich in cell membrane proteins was isolated, obtained by centrifugation. […] Aliquots of the said fraction of the homogenate containing 300 μg of total proteins were incubated with scalar amounts of [^3H](+)-pentazocine (which is used, for experimental purposes only, as a a ligand). The reaction was carried out at 37° C. for 150 minutes and then, after filtering, the radioactivity left on the filters was measured by liquid scintillation.

[2] = biological target: T1, σ-1 receptors; experiment: Inhibition of 3H(+)-N-allyl-nor-methazocine binding to irido-ciliary body membranes; parameters: species or system rabbit (New Zealand albino); settings: rabbit irido-ciliary body P2 membranes, 300 μg protein, 37° C., 150 minutes, duplicate
Experimental: The receptor binding technique was carried out on cell membranes obtained from the irido-ciliary body complex explanted, after sacrifice, from male albino rabbits of the New Zealand strain (Charles River Italiana, of Calco (CO)). The tissue was homogenised in buffer and the P2, fraction, rich in cell membrane proteins, was isolated. […] The La total protein concentration was determined with the Lowry method.
The non specific binding was evaluated in presence of haloperidol.
All tests were carried out in duplicate. The reaction was maintained at 37° C. for 150 minutes, followed by filtration on WhatmannGF/B filters. The radioactivity left on the filters was measured by liquid scintillation spectrometry.

[3] = system: intraocular pressure of rabbits with ocular hypertension; experiment: Intraocular pressure in rabbits with ocular hypertension induced by α-chymotrypsin; format: in vivo, rabbit (Vienna Blue, pigmented); settings: Table 5, hypertensive rabbits, 50 μl eye-drops: 0.050% flunarizine, 0.5% timolol, or flunarizine/beta-blocker combinations
Experimental: Rabbits of the same type as those described in the previous section were used for the following tests.
In the rabbit, the injection of this enzyme in the posterior chamber causes, after one month from the administration, an effect of ocular hypertension.
At the end of the quarantine period the rabbits were anaesthetised by intramuscular administration of ketamine hydrochloride and xylazine hydrochloride (RBI). The right eye was gently pushed outwardly after instilling 25 μl of Novesine® eye-drops, containing oxybuprocaine as an anaesthetic; then, a sterile solution of σ-chymotrypsin (SIGMA, Milan; 150 units in 100 μl of physiologic sterile solution) was injected in the posterior chamber of the right eye by means of a 30G sterile needle. After the administration of the enzyme, the eye was thoroughly washed with physiologic sterile solution in order to remove any traces of α-chymotrypsin which could damage the ocular tissues. Then, 2 drops of a commercial ophthalmic antibiotic solution (Colbiocin®, SIFI S.p.A., containing chloramphenicol, rolitetracycline, colistin methanesulphonate) were instilled. The treatment was carried out 3 times a day (at 8.00 a.m., 12.00 a.m. and 6.00 p.m.) for one week after the administration of α-chymotrypsin. The rabbits were employed in the tests after one month from the induction of ocular hypertension by means of the enzyme.
The rabbits, divided also in this case in groups of 4 animals, were treated by instillation of 50 μl of the product under test in the right conjunctival fornix.
The intraocular pressure in the treated eye was measured, according to the same procedure as in the previous tests, 15 minutes before the instillation of the eye-drops and 30, 60, 90, 120, 180 and 240 minutes after. The values obtained were statistically analysed according to the criteria mentioned in the foregoing.
The experimental conditions were exactly the same as before.

[4] = system: intraocular pressure of rabbits showing normal baseline intraocular pressure; experiment: Intraocular pressure in rabbits with normal intraocular pressure after topical instillation; format: in vivo, rabbit (Vienna Blue, pigmented); settings: Table 2, 50 μl eye-drops: 0.050% flunarizine, 0.5% timolol, or flunarizine/beta-blocker combinations
Experimental: The effects of the agent of the invention on the intraocular pressure of rabbits showing normal baseline intraocular pressure were evaluated in comparison with the action of a placebo, and with that of various other calcium channel blocking agents. Female pigmented rabbits of the Vienna Blue strain were used (supplied by Charles River Italiana, of Calco (CO)). The age of the animals at the time of starting the experimentation was 9 weeks, and their weight was 2.0-2.5 kg.
The choice of a species with pigmented iris is due to the fact that the latter represents a reliable model for the evaluation of possible modifications of the intraocular pressure caused by the products under test. The strain chosen is genetically defined, so as to limit to a minimum the variability of the biological characteristics between one animal and the other.
The animals were kept in rooms maintained under constant and controlled conditions of temperature and humidity, illuminated for 12 hours a day with artificial light and with continuous renovation of the air. The feed consisted of a standard diet having a constant and known composition, and both feed and water were available ad libitum during the whole period of the test. The rabbits were stabled for 21 days before starting the test, so as to allow a sufficient acclimatation and to suitably evaluate the health conditions of the rabbits. Each experimental group consisted of 4 animals, which were allotted to the treatment groups in a randomised way.
Each different group of animals received, by instillation in the right conjunctival fornix, 50 μl of the following products:
The weight concentrations of the various agents under test are chosen so as to correspond to the same molar concentration.
The pressure in the treated eye was measured by flattening tonometer (TonopenXL®, Mentor), 15 minutes before the instillation of the eyerops (time 0) and then 30, 60, 90, 120, 180 and 240 minutes after. As a local anaesthetic, 5 minutes before carrying out each measurement 25 μl of a commercial ophthalmic solution containing 0.4% oxybuprocaine hydrochloride (Novesine®, Sandoz) was instilled. To carry out the measurement the rabbits were placed in a suitably designed cage, that prevents any sudden movement of the animal under test.
For each animal and at each of the times listed above the average of three subsequent measurements was calculated and recorded, each one said measurements being made after 1 minute from the previous one. The intraocular pressure values at the various times were compared with the values obtained before the treatment, by means of the Student's “t” test. The comparisons between different groups were made by processing the data by the variance analysis (ANOVA) and, where possible, by the Student's “t” test for the comparison of two different experimental groups. Values of p<0.05 were considered to be statistically significant.

[5] = average ± S.D. of 4 rabbits, 30 min after instillation
[6] = average ± S.D. of 4 rabbits, 60 min after instillation
[7] = average ± S.D. of 4 rabbits, 90 min after instillation
[8] = average ± S.D. of 4 rabbits, 120 min after instillation
[9] = average ± S.D. of 4 rabbits, 180 min after instillation
[10] = average ± S.D. of 4 rabbits, 240 min after instillation
[11] = average ± S.D. of 4 rabbits, time 0 = 15 min before instillation (baseline)
[12] = individual rabbit, right eye, 30 min after instillation
[13] = individual rabbit, right eye, 60 min after instillation
[14] = individual rabbit, right eye, 90 min after instillation
[15] = individual rabbit, right eye, 120 min after instillation
[16] = individual rabbit, right eye, 180 min after instillation
[17] = individual rabbit, right eye, 240 min after instillation
[18] = individual rabbit, right eye, time 0 = 15 min before instillation (baseline)

T1 sequence (G1SD54 1-223): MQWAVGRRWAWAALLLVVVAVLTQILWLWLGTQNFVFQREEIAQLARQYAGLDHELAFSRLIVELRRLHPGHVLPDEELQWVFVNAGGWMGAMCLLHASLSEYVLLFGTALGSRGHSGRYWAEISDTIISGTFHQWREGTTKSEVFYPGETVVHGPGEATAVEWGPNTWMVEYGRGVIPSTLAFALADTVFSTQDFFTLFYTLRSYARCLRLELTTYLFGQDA

Question: For `CC(C)=CCN1CC[C@]2(C)c3cc(O)ccc3C[C@H]1[C@H]2C` [[^3H])(+)-pentazocine, [^3H](+)-pentazocine], which “Binding to receptor sites of the iridociliary body region” value [1] is on record?
Answer: selectively binds to receptor sites

Question: Which IC50 [2] does the source give for `COCCOC(=O)C1=C(C)NC(C)=C(C(=O)OC(C)C)C1c1cccc([N+](=O)[O-])c1` (stereo not drawn) [nimodipine] here?
Answer: > 10 µM

Question: What does the source list for `CC(C)(C)NC[C@H](O)COc1nsnc1N1CCOCC1` [timolol]?
Answer: Intraocular pressure (mmHg) at the time (min): 30, average ± S.D. [3, 5]: 41.7 ± 4.7 mmHg; Intraocular pressure (mmHg) at the time (min): 60, average ± S.D. [3, 6]: 39.7 ± 2.9 mmHg; Intraocular pressure (mmHg) at the time (min): 90, average ± S.D. [3, 7]: 39.7 ± 2.6 mmHg; Intraocular pressure (mmHg) at the time (min): 120, average ± S.D. [3, 8]: 42.5 ± 3.5 mmHg; Intraocular pressure (mmHg) at the time (min): 180, average ± S.D. [3, 9]: 46.0 ± 4.9 mmHg; Intraocular pressure (mmHg) at the time (min): 240, average ± S.D. [3, 10]: 48.2 ± 4.4 mmHg; Intraocular pressure (mmHg) at the time (min): 0, average ± S.D. [3, 11]: 49.0 ± 5.3 mmHg; Intraocular pressure (mmHg) at the time (min): 30 [3, 12]: 43 mmHg and 45 mmHg and 39 mmHg and 40 mmHg; Intraocular pressure (mmHg) at the time (min): 60 [3, 13]: 42 mmHg (2×) and 39 mmHg and 36 mmHg; Intraocular pressure (mmHg) at the time (min): 90 [3, 14]: 42 mmHg (2×) and 38 mmHg and 37 mmHg; Intraocular pressure (mmHg) at the time (min): 120 [3, 15]: 46 mmHg and 45 mmHg and 39 mmHg and 40 mmHg; Intraocular pressure (mmHg) at the time (min): 180 [3, 16]: 52 mmHg and 48 mmHg and 42 mmHg (2×); Intraocular pressure (mmHg) at the time (min): 240 [3, 17]: 53 mmHg and 51 mmHg and 45 mmHg and 44 mmHg; Intraocular pressure (mmHg) at the time (min): 0 [3, 18]: 53 mmHg and 54 mmHg and 46 mmHg and 43 mmHg; Intraocular pressure (mmHg) at the time (min): 30, average ± S.D. [4, 5]: 14.7 ± 0.5 mmHg; Intraocular pressure (mmHg) at the time (min): 60, average ± S.D. [4, 6]: 13.5 ± 0.6 mmHg; Intraocular pressure (mmHg) at the time (min): 90, average ± S.D. [4, 7]: 14.5 ± 0.6 mmHg; Intraocular pressure (mmHg) at the time (min): 120, average ± S.D. [4, 8]: 15.5 ± 0.6 mmHg; Intraocular pressure (mmHg) at the time (min): 180, average ± S.D. [4, 9]: 16.0 ± 0.6 mmHg; Intraocular pressure (mmHg) at the time (min): 240, average ± S.D. [4, 10]: 16.0 ± 0.8 mmHg; Intraocular pressure (mmHg) at the time (min): 0, average ± S.D. [4, 11]: 15.7 ± 0.5 mmHg; Intraocular pressure (mmHg) at the time (min): 30 [4, 12]: 15 mmHg (3×) and 14 mmHg; Intraocular pressure (mmHg) at the time (min): 60 [4, 13]: 14 mmHg (2×) and 13 mmHg (2×); Intraocular pressure (mmHg) at the time (min): 90 [4, 14]: 14 mmHg (2×) and 15 mmHg (2×); Intraocular pressure (mmHg) at the time (min): 120 [4, 15]: 15 mmHg (2×) and 16 mmHg (2×); Intraocular pressure (mmHg) at the time (min): 180 [4, 16]: 16 mmHg (2×) and 17 mmHg and 15 mmHg; Intraocular pressure (mmHg) at the time (min): 240 [4, 17]: 16 mmHg (2×) and 17 mmHg and 15 mmHg; Intraocular pressure (mmHg) at the time (min): 0 [4, 18]: 16 mmHg (3×) and 15 mmHg
